This series in a line: Solid state stability of the drug substance (HPLC assay for final content and degradation products). The format is physicochemical. As to conditions: 1 month, product of Example 1. As for the experimental part: The solid state stability of the drug substance was determined by storing approximately 1.0 g of the material in a glass bottle at i) 40° C./75% Relative Humidity (RH), open exposure, for 1 month and b) at 50° C., closed, for 1 month. The material was assayed by HPLC for final content and degradation products in both cases.

Where [1] appears, read: 40° C./75% Relative Humidity (RH), open exposure.

As to `CN(CCOc1ccc(CC2SC(=O)NC2=O)cc1)c1ccccn1.O=C(O)C(O)C(O)C(=O)O` (racemic) [DL-Tartrate, 5-[4-[2-(N-methyl-N-(2-pyridyl)amino)ethoxy]benzyl]thiazolidine-2,4-dione DL tartrate], under setting [1], the “Solid state stability: HPLC assay” value was 97 % initial and the “Solid state stability: degradation observed” value was “No significant degradation observed”. Also, for the setting “50° C., closed”, the “Solid state stability: HPLC assay” value is recorded as 99 % initial and the “Solid state stability: degradation observed” value is “No significant degradation observed”.

The record behind these values is US20040014790A1, “Tartrate salt of thiazolidinedione derivative” (priority 2000, published 2004).
